In patent publication US20240423207A1, “PICOLINAMIDE COMPOUNDS WITH FUNGICIDAL ACTIVITY” (CORTEVA AGRISCIENCE LLC, priority 2014, published 2024):
Like-named read-outs stand apart in the source and are kept apart here.

What was measured:
Type in all cases: in vivo
[1] = test system: Puccinia triticina; Synonym: Puccinia recondita f sp. tritici; assay: Wheat Brown Rust (PUCCRT) fungicidal activity on wheat seedlings; settings: Low Volume, 121.5 g/H
How it was run: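 Yuma wheat seedlings (first leaf emerged) were sprayed to run-off with compound in acetone/water 1:9 (110 ppm Triton X-100), and P. triticina spores were inoculated before or after treatment. Plants were kept overnight in a 22 °C dark dew room at 100% RH, then moved to a 24 °C greenhouse; % control was based on first-leaf severity (0–100%) versus untreated plants.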

[2] = test system: Mycosphaerella graminicola; Anamorph: Septoria tritici; assay: Leaf Blotch of Wheat (SEPTTR) fungicidal activity on wheat seedlings; settings: Zymoseptoria tritici, Low Volume, 121.5 g/H
How it was run: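 Compounds in acetone were diluted with nine volumes of water containing 110 ppm Triton X-100, or as EC formulations with 0.1% Trycol 5941 for track spray. They were sprayed on first-leaf Yuma wheat seedlings inoculated with S. tritici before or after treatment. Plants spent 1 day dark and 2–3 days lit at 100% RH, 20 °C. Severity (0–100%) was scored once untreated plants were fully diseased; control was computed relative to untreated plants.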

[3] = test system: Glomerella lagenarium; Anamorph: Colletotrichum lagenarium; assay: Cucumber Anthracnose (COLLLA) fungicidal activity on cucumber seedlings; settings: Colletotrichum orbiculare, 24 h, 1 Day Protectant, read-out: COLLLA 1 DP disease control
Protocol: Technical grades of materials were dissolved in acetone, which were then mixed with nine volumes of water (H2O) containing 110 ppm Triton X-100. The fungicide solutions were applied onto wheat seedlings using an automated booth sprayer to run-off. All sprayed plants were allowed to air dry prior to further handling. All fungicides were evaluated using the aforementioned method for their activity vs. all target diseases, unless stated otherwise. Wheat leaf blotch and brown rust activity were also evaluated using track spray applications, in which case the fungicides were formulated as EC formulations, containing 0.1% Trycol 5941 in the spray solutions. Wheat plants (variety Yuma) were grown from seed in a greenhouse in 50% mineral soil/50% soil-less Metro mix until the first leaf was fully emerged, with 7-10 seedlings per pot. These plants were inoculated with an aqueous spore suspension of Septoria tritici either prior to or after fungicide treatments. After inoculation the plants were kept in 100% relative humidity (one day in a dark dew chamber followed by two to three days in a lighted dew chamber at 20° C.) to permit spores to germinate and infect the leaf. The plants were then transferred to a greenhouse set at 20° C. for disease to develop. When disease symptoms were fully expressed on the 1st leaves of untreated plants, infection levels were assessed on a scale of 0 to 100 percent disease severity. Percent disease control was calculated using the ratio of disease severity on treated plants relative to untreated plants. Example J: Evaluation of Fungicidal Activity: Cucumber Anthracnose (Glomerella lagenarium; Anamorph: Colletotrichum lagenarium; Bayer code COLLLA) Cucumber seedlings (variety Bush Pickle) were propagated in soil-less Metro mix, with each pot having one plant, and used in the test when 12 to 14 days old. Test plants were inoculated with an aqueous spore suspension of Colletotrichum lagenarium 24 hr after fungicide treatments. After inoculation the plants were kept in a dew room at 22° C. with 100% relative humidity for 48 hr to permit spores to germinate and infect the leaf. The plants were then transferred to a growth room set at 22° C. for disease to develop. Fungicide formulation, application and disease assessment on the sprayed leaves followed the procedures as described in the Example A.

[4] = 24 h, 1 Day Protectant, read-out: PUCCRT 1DP disease control
[5] = 72 h, 3 Day Curative, read-out: PUCCRT 3DC disease control
[6] = 24 h, 1 Day Protectant, read-out: SEPTTR 1DP disease control
[7] = 72 h, 3 Day Curative, read-out: SEPTTR 3DC disease control

SMILES | pest or weed control at 121.5 g/ha [1, 4] [%] | pest or weed control at 121.5 g/ha [1, 5] [%] | pest or weed control at 121.5 g/ha [2, 6] [%] | pest or weed control at 121.5 g/ha [2, 7] [%] | pest or weed control at 100 ppm [3] [%]
COc1ccnc(C(=O)N[C@@H](C)C(=O)O[C@@H](C)C(c2ccccc2)c2ccccc2)c1OC(C)=O [Cmpd 139, (S)-(S)-1,1-diphenylpropan-2-yl 2-(3-acetoxy-4-methoxypicolinamido)propanoate] | > 80 | > 80 | > 80 | > 80 | > 80
COc1ccnc(C(=O)N[C@@H](C)C(=O)O[C@@H](C)C(c2ccccc2)c2ccccc2)c1OC(=O)C(C)C [Cmpd 140] | > 80 | < 80 | > 80 | > 80 | > 80
COc1ccnc(C(=O)N[C@@H](C)C(=O)O[C@@H](C)C(c2ccccc2)c2ccccc2)c1OCOC(C)=O [Cmpd 141, (S)-(S)-1,1-diphenylpropan-2-yl 2-(3-(acetoxymethoxy)-4-methoxypicolinamido)propanoate] | > 80 | > 80 | > 80 | > 80 | > 80
COc1ccnc(C(=O)N[C@@H](C)C(=O)O[C@@H](C)C(c2ccccc2)c2ccccc2)c1OCOC(=O)C(C)C [Cmpd 142, (S)-(S)-1,1-diphenylpropan-2-yl 2-(3-((isobutyryloxy)methoxy)-4-methoxypicolinamido)propanoate] | > 80 | > 80 | > 80 | > 80 | > 80
COc1ccnc(C(=O)N[C@@H](C)C(=O)O[C@@H](C)C(c2ccc(F)cc2)c2ccc(F)cc2)c1OC(C)=O [Cmpd 145] | > 80 | > 80 | > 80 | > 80 | > 80
COc1ccnc(C(=O)N[C@@H](C)C(=O)O[C@@H](C)C(c2ccc(F)cc2)c2ccc(F)cc2)c1OCOC(C)=O [Cmpd 146] | > 80 | > 80 | > 80 | > 80 | > 80
COc1ccnc(C(=O)N[C@@H](C)C(=O)O[C@@H](C)C(c2ccc(F)cc2F)c2ccc(F)cc2F)c1OCOC(C)=O [Cmpd 148] | > 80 | > 80 | > 80 | > 80 | > 80
COc1ccnc(C(=O)N[C@@H](C)C(=O)O[C@@H](C)C(c2ccc(F)cc2F)c2ccc(F)cc2F)c1OC(C)=O [Cmpd 150] | > 80 | > 80 | > 80 | > 80 | > 80
COc1ccnc(C(=O)N[C@@H](C)C(=O)O[C@@H](C)C(c2ccc(Cl)cc2)c2ccc(Cl)cc2)c1OC(C)=O [Cmpd 174] | > 80 | < 80 | > 80 | > 80 | > 80
COc1ccnc(C(=O)N[C@@H](C)C(=O)O[C@@H](C)C(c2ccc(Cl)cc2)c2ccc(Cl)cc2)c1OCOC(C)=O [Cmpd 176] | > 80 | > 80 | > 80 | > 80 | > 80
